The results in this text go back to US20190375778A1, “ADENOSINE DERIVATIVES FOR USE IN THE TREATMENT OF CANCER” (NuCana plc, priority 2016, published 2019).

What all share (type): cell-based
One assay deals with Murine leukemia L1210. Description: Cell proliferation (Coulter count) assay, L1210. The settings on record: Mus musculus, 48 h, read-out: absolute IC50, L1210. The text has this: (§1) Lovo: cell line derived from a metastatic site in a patient with colon cancer MCF7: human oestrogen sensitive mammary epithelial cell line PC3: human prostate cancer cell line A549: cancerous lung tissue derived cells L1210: lymphoblast cell line derived from a mouse with lymphocytic leukaemia FM3A: mammary carcinoma murine cells CEM: human T-lymphoblasts, derived from the blood of a patient with acute lymphoblastic leukaemia HeLa: epithelial cells from a patient with cervical adenocarcinoma
(§2) Murine leukemia L1210, human T-lymphocyte CEM, and human cervix carcinoma HeLa cells were obtained from the American Type Culture Collection (ATCC) (Rockville, Md.). All cells were maintained in Dulbecco's modified Eagle's medium (DMEM) (Invitrogen, Carlsbad, Calif.) with 10% fetal bovine serum (FBS) (Biochrom AG, Berlin, Germany), 10 mM Hepes, and 1 mM sodiumpyruvate (Invitrogen). Cells were grown at 37° C. in a humidified incubator with a gas phase of 5% CO2. Monolayer cells (HeLa and […]) were seeded in 96-well microtiter plates (Nunc, Roskilde, Denmark) at 10 000 cells/well. After 24 h, an equal volume of fresh medium containing the test compounds was added. On day 5, cells were trypsinized and counted in a Coulter counter (Analis, Suarlee, Belgium). Suspension cells (L1210, CEM) were seeded in 96-well microtiter plates (Nunc) at 60 000 cells/well in the presence of a given amount of the test compounds. The cells were allowed to proliferate for 48 h (L1210) or 72 h (CEM) and were then counted in a Coulter counter. The 50% inhibitory concentration (IC50) was defined as the compound concentration required to reduce cell proliferation by 50%. The cytostatic activity of the compounds was determined after 3 days, as outlined above.

The next assay concerns human T-lymphocyte CEM. Put plainly: Cell proliferation (Coulter count) assay, CEM. The settings on record: 72 h, read-out: absolute IC50, CEM.
Description: as §1, §2

Assay [1] concerns human cervix carcinoma HeLa cells. Description: Cell proliferation (Coulter count) assay, HeLa. The settings on record: 120 h, cell count on day 5, read-out: absolute IC50, HeLa.
Description: as §1, §2

In the case of `C[C@H](NP(=O)(N[C@@H](C)C(=O)OCc1ccccc1)OC[C@H]1O[C@@H](n2c(Cl)nc3c(N)ncnc32)C(O)C1O)C(=O)OCc1ccccc1` (stereo partly drawn) [AB, 8-Chloroadenosine 5′-O-bis(benzyloxy-L-alanin-N-yl) phosphate], the figures for the IC50 (in the assay with Murine leukemia L1210; in the assay with human T-lymphocyte CEM; in assay [1]) were 5 to 15 µM, 0.1 to 5 µM and 0.1 to 5 µM, respectively.

In the case of `CCOC(=O)[C@H](C)NP(=O)(OC[C@H]1O[C@@H](n2c(Cl)nc3c(N)ncnc32)C(O)C1O)Oc1cccc2ccccc12` (stereo partly drawn) [F, 5′-([(Ethyloxy-L-alanin-N-yl)-naphth-1-yl]-phosphatyl) 8-chloroadenosine], the IC50 in the assay with Murine leukemia L1210 fell in the range of 15 to 100 µM; in the assay on human T-lymphocyte CEM it was 5 to 15 µM; in assay [1], 0.1 to 5 µM.

Take `C[C@H](NP(=O)(OC[C@H]1O[C@@H](n2c(Cl)nc3c(N)ncnc32)C(O)C1O)Oc1cccc2ccccc12)C(=O)OC1CCCCC1` (stereo partly drawn) [G, 5′-([(Cyclohexyloxy-L-alanin-N-yl)-naphth-1-yl]-phosphatyl) 8-chloroadenosine]: the values for the IC50 (in the assay on Murine leukemia L1210; in the assay on human T-lymphocyte CEM; in assay [1]) were 15 to 100 µM, 5 to 15 µM and 0.1 to 5 µM, respectively.

On to `CCCCCOC(=O)[C@H](CC(C)C)NP(=O)(OC[C@H]1O[C@@H](n2c(Cl)nc3c(N)ncnc32)C(O)C1O)Oc1cccc2ccccc12` (stereo partly drawn) [I, 5′-([(Pent-1-yloxy-L-leucin-N-yl)-naphth-1-yl]-phosphatyl) 8-chloroadenosine], for which the IC50 in the assay on Murine leukemia L1210 fell in the range of 5 to 15 µM; with human T-lymphocyte CEM, 5 to 15 µM; in assay [1], 0.1 to 5 µM.

`CC(C)C[C@H](NP(=O)(OC[C@H]1O[C@@H](n2c(Cl)nc3c(N)ncnc32)C(O)C1O)Oc1cccc2ccccc12)C(=O)OC1CCCCC1` (stereo partly drawn) [J, 5′-([(Cyclohexyloxy-L-leucin-N-yl)-naphth-1-yl]-phosphatyl) 8-chloroadenosine]: the IC50 (with Murine leukemia L1210; in the assay with human T-lymphocyte CEM; in assay [1]) was 5 to 15 µM throughout.

With `CCOC(=O)[C@H](CC(C)C)NP(=O)(OC[C@H]1O[C@@H](n2c(Cl)nc3c(N)ncnc32)C(O)C1O)Oc1cccc2ccccc12` (stereo partly drawn) [K, 5′-([(ethyloxy-L-leucin-N-yl)-naphth-1-yl]-phosphatyl) 8-chloroadenosine], the IC50 in the assay with Murine leukemia L1210 fell in the range of 15 to 100 µM; in the assay on human T-lymphocyte CEM, 5 to 15 µM; in assay [1], 0.1 to 5 µM.

Consider `Nc1ncnc2c1nc(Cl)n2[C@@H]1O[C@H](COP(=O)(NCC(=O)OC2CCCCC2)Oc2cccc3ccccc23)C(O)C1O` (stereo partly drawn) [M, 5′-([(Cyclohexyloxy-glycin-N-yl)-naphth-1-yl]-phosphatyl) 8-chloroadenosine], for which the IC50 (in the assay on Murine leukemia L1210; with human T-lymphocyte CEM; in assay [1]) was 15 to 100 µM throughout.

In the case of `CCOC(=O)CNP(=O)(OC[C@H]1O[C@@H](n2c(Cl)nc3c(N)ncnc32)C(O)C1O)Oc1cccc2ccccc12` (stereo partly drawn) [N, 5′-([(ethyloxy-glycin-N-yl)-naphth-1-yl]-phosphatyl) 8-chloroadenosine], the IC50 was in the range of 15 to 100 µM in the assay on Murine leukemia L1210, 15 to 100 µM in the assay on human T-lymphocyte CEM and 0.1 to 5 µM in assay [1].

In the case of `Nc1ncnc2c1nc(Cl)n2[C@@H]1O[C@H](COP(=O)(N[C@@H](Cc2ccccc2)C(=O)OC2CCCCC2)Oc2cccc3ccccc23)C(O)C1O` (stereo partly drawn) [R, 5′-([(Cyclohexyloxy-L-phenylalanin-N-yl)-naphth-1-yl]-phosphatyl) 8-chloroadenosine], the IC50 in the assay with Murine leukemia L1210 lay within 5 to 15 µM; in the assay with human T-lymphocyte CEM it was 5 to 15 µM; in assay [1], 0.1 to 5 µM.

As to `CCOC(=O)[C@H](Cc1ccccc1)NP(=O)(OC[C@H]1O[C@@H](n2c(Cl)nc3c(N)ncnc32)C(O)C1O)Oc1cccc2ccccc12` (stereo partly drawn) [S, 5′-([(Ethyloxy-L-phenylalanin-N-yl)-naphth-1-yl]-phosphatyl) 8-chloroadenosine], the figures for the IC50 (in the assay with Murine leukemia L1210; in the assay with human T-lymphocyte CEM; in assay [1]) were 15 to 100 µM, 5 to 15 µM and 0.1 to 5 µM, respectively.
